{"source": "patent US20120070508A1", "about": "“Methods, Compositions, and Devices for Managing Chlorine Dioxide Release” (DHARMA IP, LLC, priority 2010, published 2012)", "assay": "Enhanced solubility of beta-cyclodextrin in water containing ClO2 (slurry test)", "conditions": "100 g slurry, 5% (w/w) in 8000 ppm ClO2 vs ultrapure water, 200 rpm, 3 days"}
{"compound": "OC[C@H]1O[C@@H]2O[C@H]3[C@H](O)[C@@H](O)[C@@H](O[C@H]4[C@H](O)[C@@H](O)[C@@H](O[C@H]5[C@H](O)[C@@H](O)[C@@H](O[C@H]6[C@H](O)[C@@H](O)[C@@H](O[C@H]7[C@H](O)[C@@H](O)[C@@H](O[C@H]8[C@H](O)[C@@H](O)[C@@H](O[C@H]1[C@H](O)[C@H]2O)O[C@@H]8CO)O[C@@H]7CO)O[C@@H]6CO)O[C@@H]5CO)O[C@@H]4CO)O[C@@H]3CO", "note": "[beta-cyclodextrin]", "values": [{"measurement": "weight of undissolved dried beta-cyclodextrin, less than control slurry", "result": 0.32, "unit": "g"}]}
